Experimental findings from patent publication US12460245B2, “Luciferase sequences utilizing infrared-emitting substrates to produce enhanced luminescence” (Promega Corporation, priority 2014, dated 2025) are described below.

One assay has as its system CBR. Briefly: Luminescence of CBR using Aka Lumine, PBI-4739 and PBI-4813. As to conditions: FIG. 19A. It is filed as biochemical, click beetle. The text has this:
(§1) FIG. 19A and FIG. 19B illustrate the luminescence of CBR using Aka Lumine, PBI-4739 and PBI-4813 (FIG. 19A) and the spectral scan of QuantiLum® Recombinant Luciferase using Aka Lumine as substrate (FIG. 19B).

In assay [1] the target is T1, QuantiLum® Recombinant Luciferase (Photinus pyralis, UniProt P08659).
T1 construct: purchased Promega E1701
Description: Spectral scan using Aka Lumine as substrate. It counts as biochemical. As to conditions: FIG. 19B.
From the text: as §1

T1 sequence (P08659 whole entry): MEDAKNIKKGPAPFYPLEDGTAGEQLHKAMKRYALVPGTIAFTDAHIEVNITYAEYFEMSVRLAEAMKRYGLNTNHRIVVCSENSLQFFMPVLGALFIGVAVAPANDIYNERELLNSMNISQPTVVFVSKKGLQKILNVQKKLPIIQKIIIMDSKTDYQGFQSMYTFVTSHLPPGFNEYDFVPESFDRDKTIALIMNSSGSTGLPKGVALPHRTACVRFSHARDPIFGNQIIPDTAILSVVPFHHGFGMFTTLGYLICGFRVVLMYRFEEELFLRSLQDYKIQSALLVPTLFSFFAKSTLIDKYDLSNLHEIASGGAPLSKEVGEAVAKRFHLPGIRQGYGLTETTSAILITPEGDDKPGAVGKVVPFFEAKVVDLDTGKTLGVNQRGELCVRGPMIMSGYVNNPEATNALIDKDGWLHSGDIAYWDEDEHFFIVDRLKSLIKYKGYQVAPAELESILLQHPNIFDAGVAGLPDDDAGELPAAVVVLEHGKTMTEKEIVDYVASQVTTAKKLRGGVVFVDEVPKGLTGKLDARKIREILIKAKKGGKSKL

For the compound `CN(C)c1ccc(/C=C/C=C/C2=N[C@@H](C(=O)O)CS2)cc1` [Aka Lumine], the brightness result with CBR is on record as “dimmer”. For the same compound, the “emission wavelength (less red)” value in assay [1] was 675 nm.
